According to ChEMBL document CHEMBL5518186, “Discovery of the cereblon-recruiting tubulin PROTACs effective in overcoming Taxol resistance in vitro and in vivo” (Eur J Med Chem, 2024):
Calls of active or inactive are those of the source. No cut-off for these calls is given here.

Tests used:
[1] = target: Protein cereblon-alpha tubulin (Homo sapiens) (UniProt P0DPH7+P68366+Q71U36+P68363+Q9BQE3+Q6PEY2+A6NHL2+Q9NY65+Q96SW2); assay: (§1) Protac activity at CRBN/alpha-tubulin in human A549 cells assessed as reduction in alpha-tubulin level incubated for 48 hrs by immunoblotting analysis; assay type: cell-based
[2] = target: Protein cereblon-alpha tubulin; assay: as §1; assay type: cell-based
[3] = target: Protein cereblon/Tubulin beta-3 chain (Homo sapiens, UniProt Q13509+Q96SW2); assay: Protac activity at CRBN/beta3-tubulin in human A549/Taxol cells assessed as reduction in beta3-tubulin level incubated for 48 hrs by immunoblotting analysis; assay type: cell-based
[4] = target: Protein cereblon/Tubulin beta (Homo sapiens) (UniProt P68371+Q9H4B7+Q13509+P04350+Q3ZCM7+P07437+Q13885+Q9BVA1+Q9BUF5+Q96SW2+A6NNZ2); assay: Protac activity at CRBN/beta-tubulin in human A549/Taxol cells assessed as reduction in beta-tubulin level at 0.25 uM pretreated with MG-132 followed by compound addition and measured after 48 hrs by immunoblotting analysis; assay type: cell-based
A549/TR = assay: Induction of cell cycle arrest in human A549/Taxol cells assessed as accumulation of cells at S phase at 0.05 uM incubated for 24 hrs by PI staining based flow cytometry analysis (reference value: 2.85%); assay type: functional

SMILES: COc1ccc(/C=C\c2cc(OC)c(OC)c(OC)c2)cc1OC(=O)CCCNc1cccc2c1C(=O)N(C1CCC(=O)NC1=O)C2=O (stereo unspecified)
- Activity [1]: Dose-Dependent Effect
- DC50 [2]: 296 nM
- Activity [3]: Dose-Dependent Effect
- DC50 [3]: 5 nM
- Activity [4]: inactive
- Activity (A549/TR): 3.85%
